Source: patent publication US20210047693A1, “METHODS OF TREATING EXTRACHROMOSOMAL DNA EXPRESSING CANCERS” (THE REGENTS OF THE UNIVERSITY OF CALIFORNIA, priority 2017, published 2021)

Assays:
Type in all cases: cell-based
PC3 cells = experiment: 2D colony formation assay with crystal violet staining; conditions: PC3 cells compared with immortalized HEK293 cells
Protocol: FIGS. 12A-12C. […] FIG. 12A) Acute cell toxicity following 4 days treatment with 10 μM of indicated PARPi. Cell death measured by FACS analysis of Sytox Red staining in 2 normal cell types (astrocytes and HEK293), PC3 ecDNA-containing cells, and the paired GBM39 cells. FIG. 12B) 2D colony formation assay and crystal violet staining in immortalized HEK293 cells and PC3 cells after treatment with Olaparib or Rucaparib. FIG. 12C) Colony number quantification by Colony Area software plug-in for ImageJ from data in (FIG. 12B).

[1] = test system: isogenic paired COLO320 cells; experiment: 3D soft agar assay; conditions: COLO320 isogenic pair (colon cancer cell line)
Description: (§1) FIGS. 13A-13B. […] FIG. 13A) 3D soft agar assay in isogenic paired GBM39 cells treated with Olaparib or Rucaparib. Quantification of colonies as measured by ColonyArea software (bottom). FIG. 13B) 3D soft agar assay in isogenic paired COLO320 cells (a colon cancer cell line) treated with Olaparib or Rucaparib. Quantification of colonies as measured by ColonyArea software (bottom).

[2] = test system: isogenic paired GBM39 cells; experiment: 3D soft agar assay; conditions: GBM39 isogenic pair
Description: as §1

GBM39 cells = experiment: Exosomal export of oncogenes amplified on ecDNA (FISH probe and PCR analysis of purified exosomes); conditions: exosomes purified from treated GBM39 cells
GBM cells [3] = experiment: Loss of EGFR-containing ecDNA / EGFR oncogene DNA (number of ecDNAs per metaphase)
GBM cells [4] = experiment: Glucose levels in cells
ecDNA = experiment: Replication stress on ecDNA versus chromosomal DNA; conditions: vehicle versus erlotinib; ecDNA vs chromosomal DNA

Compound | 2D colony formation (colony number) (PC3 cells) | 3D soft agar colonies [1] | 3D soft agar colonies [2] | cellular level of oncogenes amplified on ecDNA, via exosomal export (GBM39 cells) | loss of ecDNA containing amplified EGFRvIII (number of ecDNAs per metaphase) (GBM cells [3]) | glucose levels in GBM cells (GBM cells [4]) | replication stress on ecDNA (frequency of pRPA(533) positive metaphase) (ecDNA)
O=C(c1cc(Cc2n[nH]c(=O)c3ccccc23)ccc1F)N1CCN(C(=O)C2CC2)CC1 [Olaparib, olaparib] | sensitive to PARP inhibition | sensitive to PARP inhibition | sensitive to PARP inhibition |  |  |  | 
CNCc1ccc(-c2[nH]c3cc(F)cc4c3c2CCNC4=O)cc1 [Rucaparib, rucaparib] | sensitive to PARP inhibition | sensitive to PARP inhibition | sensitive to PARP inhibition |  |  |  | 
C#Cc1cccc(Nc2ncnc3cc(OCCOC)c(OCCOC)cc23)c1 [erlotinib] |  |  |  | reduction of cellular level of oncogenes amplified on ecDNA | causes the loss of ecDNA containing amplified EGFRvIII | lowers glucose levels in GBM cells | specifically causes replication stress on ecDNA, but not on chromosomal DNA
